Values quoted from earlier work as cited in patent US8389778B2, “Preparation of mannitol modification III” (Aptuit (West Lafayette), LLC, priority 2007, dated 2013).

stability of the hemihydrate (ambient conditions)	SMILES	phase transformation of modification III into modification I on storage (kept dry, period of 5 years)
unstable under ambient conditions	OC[C@@H](O)[C@@H](O)[C@H](O)[C@H](O)CO [hemihydrate, Mannitol hemihydrate]	–
–	OC[C@@H](O)[C@@H](O)[C@H](O)[C@H](O)CO [modification III, mannitol]	did not transform into modification I over a period of 5 years
